# Data reported in patent publication US12391641B2, “Prostaglandin EP4 receptor antagonist compounds” (NXERA PHARMA UK LIMITED, priority 2019, dated 2025).
# Target: T1, Human prostaglandin E2 receptor 4 (EP4) (Homo sapiens, UniProt P35408)
# T1 construct: expressed in transfected cells; host or cells: HEK293 cells transduced with EP4 BacMam virus
# Experiment: cAMP Gs Functional Assay (HTRF cAMP dynamic-2), antagonism of PGE2
# Format: cell-based
# Details: HEK293 cells transfected with EP4 BacMam virus; PGE2 challenge at EC80 (7 nM); pIC50 converted to functional pKb with a modified Cheng Prussoff equation; read-out: Human EP4 fpKb (converted)
# Procedure, shortened: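 HEK293 cells transiently expressing human EP4 via BacMam (36 h), preincubated with compound 30 min at 37 °C in DMEM + 0.5 mM IBMX, 5000 cells/well, then challenged with EC80 PGE2 (7 nM). cAMP read by HTRF; pIC50 converted to pKb by modified Cheng-Prusoff using agonist EC50 and challenge concentration.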
# T1 sequence (P35408 whole entry): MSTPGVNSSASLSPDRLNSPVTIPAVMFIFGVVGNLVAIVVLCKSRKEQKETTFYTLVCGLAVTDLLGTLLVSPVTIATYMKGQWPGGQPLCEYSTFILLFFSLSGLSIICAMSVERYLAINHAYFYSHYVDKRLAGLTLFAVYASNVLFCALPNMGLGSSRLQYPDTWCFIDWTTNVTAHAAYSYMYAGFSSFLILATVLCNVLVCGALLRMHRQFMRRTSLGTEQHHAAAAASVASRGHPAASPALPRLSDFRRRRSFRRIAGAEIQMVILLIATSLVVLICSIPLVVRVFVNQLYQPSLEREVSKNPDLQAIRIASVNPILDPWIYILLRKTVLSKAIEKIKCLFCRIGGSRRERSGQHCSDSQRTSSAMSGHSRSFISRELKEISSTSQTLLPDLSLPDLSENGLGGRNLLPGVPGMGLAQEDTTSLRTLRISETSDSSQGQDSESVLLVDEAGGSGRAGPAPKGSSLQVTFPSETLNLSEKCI
row,Structure (SMILES),Ki
1,"CC(C)[C@@H](OCc1ccc(C(F)F)nc1)C(=O)NC1(c2ccc(C(=O)O)cc2)CC1 [Example 84, (R)-4-(1-(2-((6-(difluoromethyl)pyridin-3-yl)methoxy)-3-methylbutanamido)cyclopropyl)benzoic acid]",11.2 nM
2,"CC(C)[C@@H](OCc1ccc(F)c(C2CC2)c1)C(=O)N[C@@H](C)c1ccc(C(=O)O)cc1 [Example 85, 4-((S)-1-((R)-2-((3-cyclopropyl-4-fluorobenzyl)oxy)-3-methylbutanamido)ethyl)benzoic acid]",0.055 nM
3,"CC(C)[C@@H](OCc1ccc(C(F)F)cn1)C(=O)NC1(c2ccc(C(=O)O)cc2)CC1 [Example 88, (R)-4-(1-(2-((5-(difluoromethyl)pyridin-2-yl)methoxy)-3-methylbutanamido)cyclopropyl)benzoic acid]",11.7 nM
4,"CC(C)[C@@H](OCc1ccc(F)c(C2CC2)c1)C(=O)NC1(c2ccc(C(=O)O)cc2)CC1 [Example 89, (R)-4-(1-(2-((3-cyclopropyl-4-fluorobenzyl)oxy)-3-methylbutanamido)cyclopropyl)benzoic acid]",6.76 nM
5,"CC(C)[C@@H](OCc1cccc(S(=O)(=O)C2CC2)c1)C(=O)N[C@@H](C)c1ccc(C(=O)O)cc1 [Example 90, 4-((S)-1-((R)-2-((3-(cyclopropylsulfonyl)benzyl)oxy)-3-methylbutanamido)ethyl)benzoic acid]",29.5 nM
6,"CC(C)[C@@H](OCc1cccc(S(=O)(=O)C2CC2)c1)C(=O)NC1(c2ccc(C(=O)O)cc2)CC1 [Example 91, (R)-4-(1-(2-((3-(cyclopropylsulfonyl)benzyl)oxy)-3-methylbutanamido)cyclopropyl)benzoic acid]",20 nM
7,"CS(=O)(=O)c1cccc(COC(C(=O)NC2(c3ccc(C(=O)O)cc3)CC2)C2CCC2)c1 (stereo not shown) [Example 95, 4-(1-(2-cyclobutyl-2-((3-(methylsulfonyl)benzyl)oxy)acetamido)cyclopropyl)benzoic acid]",79.4 nM
8,"O=C(O)c1ccc(C2(NC(=O)C(OCc3ccc(C(F)(F)F)cc3)C3CCC3)CC2)cc1 (stereo not shown) [Example 96, 4-(1-(2-cyclobutyl-2-((4-(trifluoromethyl)benzyl)oxy)acetamido)cyclopropyl)benzoic acid]",6.61 nM
9,"O=C(O)c1ccc(C2(NC(=O)C(OCc3ccc(F)c(F)c3)C3CCC3)CC2)cc1 (stereo not shown) [Example 97, 4-(1-(2-cyclobutyl-2-((3,4-difluorobenzyl)oxy)acetamido)cyclopropyl)benzoic acid]",12.6 nM
10,"O=C(O)c1ccc(C2(NC(=O)C(OCc3cccc(Cl)c3)C3CCC3)CC2)cc1 (stereo not shown) [Example 98, 4-(1-(2-((3-chlorobenzyl)oxy)-2-cyclobutylacetamido)cyclopropyl)benzoic acid]",1.48 nM
11,"O=C(O)c1ccc(C2(NC(=O)C(OCc3cccc(OC(F)F)c3)C3CCC3)CC2)cc1 (stereo not shown) [Example 99, 4-(1-(2-cyclobutyl-2-((3-(difluoromethoxy)benzyl)oxy)acetamido)cyclopropyl)benzoic acid]",3.31 nM
12,"O=C(O)c1ccc(C2(NC(=O)[C@@H](OCc3cccc(OC(F)F)c3)C3CCC3)CC2)cc1 [Example 100, (S)-4-(1-(2-cyclobutyl-2-((3-(difluoromethoxy)benzyl)oxy)acetamido)cyclopropyl)benzoic acid]",15.5 nM
13,"O=C(O)c1ccc(C2(NC(=O)[C@H](OCc3cccc(OC(F)F)c3)C3CCC3)CC2)cc1 [Example 101, (R)-4-(1-(2-cyclobutyl-2-((3-(difluoromethoxy)benzyl)oxy)acetamido)cyclopropyl)benzoic acid]",0.851 nM
